Laboratory results from patent US20240391870A1 (Arcturus Therapeutics, Inc., priority 2023, published 2024).

Key:
factor VII = experiment: Factor VII knock down evaluation (LNP with FVII siRNA); format: in vivo, Balb/C mice; conditions: plasma FVII after 48 h vs saline control; for FVII KD % 0.01 mpk: 0.01 mpk i.v.; for FVII KD % 0.03 mpk: 0.03 mpk i.v.
Description: Lipid formulations comprising a FVII siRNA further described below were evaluated for their knockdown activity using the protocol of this example. In the FVII evaluation, seven to eight week-old, female Balb/C mice were purchased from Charles River Laboratories (Hollister, CA). The mice were held in a pathogen-free environment and all procedures involving the mice were performed in accordance with guidelines established by the Institutional Animal Care and Use Committee (IACUC). Lipid nanoparticles containing factor VII siRNA were administered intravenously at a dosing volume of 10 mL/kg and two dose levels (0.03 and 0.01 mg/kg). After 48 h, the mice were anesthetized with isoflurane and blood was collected retro-orbitally into Microtainer® tubes coated with 0.109 M sodium citrate buffer (BD Biosciences, San Diego, CA) and processed to plasma. Plasma specimens were tested for factor VII levels immediately or stored at −80° C. for later analysis. Measurement of FVII protein in plasma was determined using the colorimetric Biophen VII assay kit (Aniara Diagnostica, USA). Absorbance was measured at 405 nm and a calibration curve was generated using the serially diluted control plasma to determine levels of factor VII in plasma from treated animals, relative to the saline-treated control animals.

hEPO = hEPO mRNA expression evaluation (hEPO-LNPs); format: in vivo, Balb/c mice; conditions: serum hEPO after 6 hr; for EPO exprssn (ng/mL) 0.03 mpk: 0.03 mpk i.v.; for EPO exprssn (ng/mL) 0.1 mpk: 0.1 mpk i.v.
Description: Protocol for hEPO mRNA Expression Evaluation
Lipid formulations comprising a hEPO mRNA below were evaluated for their ability to express hEPO in vivo according to the protocol of this example. All animal experiments were conducted using institutionally-approved protocols (IACUC). In this protocol, female Balb/c mice at least 6-8 weeks of age were purchased from Charles River Laboratory. […] After 6 hr, blood was collected with serum separation tubes, and the serum was isolated by centrifugation. Serum hEPO levels were then measured using an ELISA assay (Human Erythropoietin Quantikine IVD ELISA Kit, R&D Systems, Minneapolis, MD).

Mouse plasma stability = format: in vitro ADME, CD-1 mouse; conditions: 1 uM lipid
Description: Lipid stock solution was prepared by dissolution of the lipid in isopropanol at the concentration of 5 mg/mL. A requisite volume of the lipid-isopropanol solution was then diluted to 100 μM concentration at a total volume of 1.0 mL with in 50:50 (v/v) ethanol/water. Ten microliters of this 100 μM solution was spiked into 1.0 mL of mouse plasma (BioIVT, Cat. No.: MSE00PLNHUNN, CD-1 mouse, anticoagulant: sodium heparin, not filtered) that was pre-warmed to 37° C. and was stirred at 50 rpm with a magnetic stir bar. The starting concentration of lipids in plasma was thus 1 μM. At time points 0, 15, 30, 45, 60 and 120 min, 0.1 mL of the plasma was withdrawn from the reaction mixture and the protein was precipitated by adding 0.9 mL of ice-cold 4:1 (v/v) acetonitrile/methanol with 1 μg/mL of a selected internal standard lipid added. After filtration through a 0.45 micron 96-well filtering plate, the filtrates were analyzed by LC-MS (Thermo Fisher's Vanquish UHPLC—LTQ XL linear ion trap Mass Spectrometer); Waters XBridge BEH Shield RP18 2.5 micron (2.1×100 mm) column with its matching guard column. Mobile phase A was 0.1% formic acid in water, and mobile phase B was 0.1% formic acid in 1:1 (v/v) acetonitrile/methanol. Flow rate was 0.5 ml/min. Elution gradient was: Time 0-1 min: 10% B; 1-6 min: 10%-95% B; 6-8.5 min: 95% B; 8.5-9 min: 95%-10% B; 9-10 min: 10% B. Mass spectrometry was in positive scanning mode from 600-1100 m/z. The peak of the molecular ion of the lipids was integrated in the extracted ion chromatography (XIC) using Xcalibur software (Thermo Fisher). The relative peak area compared to T=0, after normalization by the peak area of the internal standard, was used as the percentage of the lipid remaining at each time point. T1/2 values were calculated using the first-order decay model.

[1] = Measured pKa in the indicated formulation; conditions: for pKa: EPO / pKa: FVII: Table 2; for pKa: EPO: measured in EPO formulation; for pKa: FVII: measured in FVII formulation
Description: Measured pKa values were determined based on the pH measured in the indicated formulation (i.e., EPO or FVII formulation).

[2] = In vivo biodegradability assay (lipid in liver); conditions: mouse liver, 48 h

Compound	FVII KD % 0.01 mpk (factor VII; Table 1) [%]	FVII KD % 0.03 mpk (factor VII; Table 1) [%]	FVII KD % 0.01 mpk (factor VII; Table 2) [%]	FVII KD % 0.03 mpk (factor VII; Table 2) [%]	EPO exprssn (ng/mL) 0.03 mpk (hEPO; Table 1) [ng/mL]	EPO exprssn (ng/mL) 0.1 mpk (hEPO; Table 1) [ng/mL]	EPO exprssn (ng/mL) 0.03 mpk (hEPO; Table 2) [ng/mL]	EPO exprssn (ng/mL) 0.1 mpk (hEPO; Table 2) [ng/mL]	Percent remaining in mouse plasma after 2 h (Mouse plasma stability; Table 1, mouse plasma 37 C) [%]	Percent remaining in mouse plasma after 2 h (Mouse plasma stability; Table 2, mouse plasma 37 C) [%]	pKa ([1]; EPO formulation)	pKa ([1]; FVII formulation)	pKa: EPO [1]	pKa: FVII [1]	In vivo degradability (ng/tissue) at 48h 0.03 mpk ([2]; Table 1)	In vivo degradability (ng/tissue) at 48h 0.1 mpk ([2]; Table 1)	In vivo degradability (ng/tissue) at 48h 0.03 mpk ([2]; Table 2)	In vivo degradability (ng/tissue) at 48h 0.1 mpk ([2]; Table 2)
CCCCCCCCC(=O)OCC(COC(=O)CCCCCCCC)OC(=O)CCC(CCC(=O)OC(COC(=O)CCCCCCCC)COC(=O)CCCCCCCC)OC(=O)CCCN(C)C [LIPID 5, bis(1,3-bis(Nonanoyloxy)propan-2-yl) 4-((4-(dimethylamino)butanoyl)oxy)heptanedioate]	90	62	90	62	87	533	87	533	40	40	6.37	6.54	6.37	6.54	BLOQ	BLOQ	BLOQ	BLOQ
CCCCCCCCC(=O)OCC(COC(=O)CCCCCCCC)COC(=O)CCN(CCC(=O)OCC(COC(=O)CCCCCCCC)COC(=O)CCCCCCCC)C(=O)SCCCN(C)C [LIPID 14]	65	90	65	90	–	–	–	1152	116	100	7.19	6.86	7.19	6.86	<340 ng/tissue	<340 ng/tissue	<340 ng/tissue	<340 ng/tissue
CC1CCC(CC(=O)OCC(COC(=O)CC2CCC(C)CC2)OC(=O)CCCN(CCCC(=O)OC(COC(=O)CC2CCC(C)CC2)COC(=O)CC2CCC(C)CC2)C(=O)SCCCN(C)C)CC1 (centres unmarked) [LIPID 15, ((4,4′-((((3-(Dimethylamino)propyl)thio)carbonyl)azanediyl)bis(butanoyl))bis(oxy))bis(propane-2,1,3-triyl)tetrakis(2-(4-methylcyclohexyl)acetate)]	–	–	66.8	89.7	–	–	–	1899	256	100	6.57	6.45	6.57	6.45	<340 ng/tissue	<340 ng/tissue	<340 ng/tissue	<340 ng/tissue
CCCCCCCC(=O)OCC(COC(=O)CCCCCCC)OC(=O)CCCC(CCCC(=O)OC(COC(=O)CCCCCCC)COC(=O)CCCCCCC)SC(=O)CCCN(C)C [LIPID 4, bis(1,3-bis(Octanoyloxy)propan-2-yl) 5-((4-(dimethylamino)butanoyl)thio)nonanedioate]	71	33	71	33	392	1108	392	1108	13	13	6.22	–	(6.22/ND)	–	BLOQ	BLOQ	BLOQ	BLOQ
